For 28 molecules, Ki and melting point results are on record in US8232308B2, “Methods for treating a disease in which Rho kinase is involved” (UBE Industries, Ltd., priority 2003, dated 2012).

pKi: −log10 of the molar value. Structures can show the parent of a compound that is named as a salt.

T1 sequence (Q62868 11-550 limits assumed): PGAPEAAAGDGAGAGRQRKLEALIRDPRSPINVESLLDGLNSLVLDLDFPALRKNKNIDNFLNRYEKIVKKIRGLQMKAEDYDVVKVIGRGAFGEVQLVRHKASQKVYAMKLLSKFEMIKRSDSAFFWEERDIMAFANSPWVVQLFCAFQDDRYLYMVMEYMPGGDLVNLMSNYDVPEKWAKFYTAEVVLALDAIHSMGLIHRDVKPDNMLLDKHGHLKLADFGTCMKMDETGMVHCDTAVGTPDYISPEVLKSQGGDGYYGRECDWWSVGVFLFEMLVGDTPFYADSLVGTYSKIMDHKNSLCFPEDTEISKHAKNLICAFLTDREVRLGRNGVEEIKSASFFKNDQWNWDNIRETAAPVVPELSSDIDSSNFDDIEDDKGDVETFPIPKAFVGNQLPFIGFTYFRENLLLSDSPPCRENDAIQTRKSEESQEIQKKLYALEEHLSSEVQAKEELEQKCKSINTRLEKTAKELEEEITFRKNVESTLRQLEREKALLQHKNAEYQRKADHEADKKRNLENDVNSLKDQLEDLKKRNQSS

One series concerns the target T1, activated ROCK II (Rattus norvegicus, UniProt Q62868).
T1 construct: purchased Upstate Biotechnology 14-338
Put plainly: Test for Evaluation of Inhibiting Activity to Rho Kinase. The class given is biochemical. The settings on record: S6 Kinase Substrate Peptide, [γ-32P]ATP, 30° C. for 15 minutes, Ki=IC50/(1+S/Km). How it is done:
In order to find the utility of the present invention compound, a Rho kinase inhibiting activity of the present invention compound was evaluated. The details thereof will be illustrated under the item of “Pharmacological Test (Test for Evaluation of Rho Kinase Inhibiting Activity)” in the Examples which will be mentioned later. The evaluation of the Rho kinase inhibiting activity of the present invention compound was carried out in accordance with the methods mentioned in J. Biol. Chem., 274, 32418 (1999) by Kaibuchi, et al. and mentioned in the instruction manual for use attached to the commercially available activated ROCK II [Upstate Biotechnology, Catalog No. 14-338 (5 units/50 μl)].
A. Test for Evaluation of Inhibiting Activity to Rho Kinase
In order to test the usefulness of the compounds of the present invention as a Rho kinase inhibitor, inhibiting activities of the compounds of the present invention to Rho kinase were evaluated and investigated in accordance with the methods of Kaibuchi, et al. mentioned in J. Biol. Chem., 274, 32418, 1999 and also with the methods mentioned in the instruction manual for use attached to commercially available activated ROCK II [Upstate Biotechnology, Catalog No. 14-338, (5 unite/50 μl)]. With regard to the test compounds, the compounds 5-1 to 5-73 (except the compounds 5-2, 5-9, 5-18, 5-37 and 5-38) were used.
A buffer was prepared so as to make tris(hydroxymethyl)aminomethane (Tris) (pH 7.5), 50 mM, ethyleneglycol bis(β-aminoethyl ether)-N,N,N′,N′-tetraacetic acid (EGTA), 2 mM, ethylenediaminetetraacetic acid (EDTA), 1 mM, magnesium chloride (MgCl2) 5 mM, β-glycerol phosphate, 5 mM, and dithiothreitol (DTT), 2 mM, by mixing them.
A mixed liquid of a 10 mM ATP solution with a commercially available [γ-^32P]ATP solution [NEN, Code No. NEG-002A] was diluted with the buffer to prepare a 300 μM ATP [γ-^32P]ATP solution.
A Commercially Available Activated ROCK II [Upstate Biotechnology, Catalog No. 14-338, (5 Units/50 μl)] was diluted to a concentration of 1/100 with the buffer to prepare an activated ROCK II solution.
A S6 Kinase Substrate Peptide [Upstate Biotechnology, Catalog No. 12-124,] (2 mg) was dissolved in distilled water to prepare a 1 mM substrate solution.
A test compound was dissolved in 10% aqueous dimethyl sulfoxide solution.
1) The test compound solution is placed in a microtube.
2) The 300 μM ATP [γ-^32P]ATP solution is added to the microtube followed by cooling to 4° C.
3) After that, a permanently activated ROCK II solution, 1 mM substrate solution and buffer are added to each microtube in that order, and the whole is mixed and cooled again at 4° C.
4) The microtube is placed in an incubator (30° C.) and the mixture is subjected to reaction for 15 minutes.
5) After cooling to 4° C., a 250 mM phosphoric acid solution (5 μl) is added to each microtube to stop the reaction.
6) The reaction solution (30 μl) is taken out from each microtube and spotted on a filter paper (Whatman P81) so that the reaction product (phosphorylated substrate) is adsorbed to the filter paper.
7) The filter paper is transferred to a beaker in which a 75 mM phosphoric acid solution is placed and shaken for 5 minutes so that unreacted [γ-^32P]AfP is washed out. The washing operation as such is carried out four times.
8) After that, the filter paper is dipped in ethanol to dehydrate and energy amount (radioactivity) of the reaction product adsorbed to the filter paper is measured with a liquid scintillation counter.
The IC50 value was calculated by an XL-fit (IDBS).
The Ki value is calculated by the following formula. S is an ATP concentration contained in the reaction solution while Km is a Michaelis-Menten constant. Ki=IC50/(1+S/Km)
In general, pKi refers to the Ki on a negative log10 scale, so that one unit is a factor of ten. For `CC(C)(N)c1ccc(-c2ccc3[nH]ncc3c2N2CCCCC2)cc1` [Compound 5-41, 5-[4-(1-Amino-1-methylethyl)phenyl]-4-(piperidin-1-yl)-1H-indazole trihydrochloride], the pKi is 7.85.
`CC(C)(N)c1ccc(-c2ccc3[nH]ncc3c2O)nc1` [Compound 5-69, 5-[5-(1-Amino-1-methylethyl)pyridin-2-yl]-4-hydroxy-1H-indazole trihydrochloride] gave a pKi of 7.26.
With `CCC(N)(CC)c1ccc(-c2ccc3[nH]ncc3c2N)cc1` [Compound 5-22, 4-Araino-5-[4-(1-amino-1-ethylpropyl)phenyl]-1H-indazole trihydrochloride], the pKi is 7.42.
On the same count and under the same terms, with `CC(C)(N)c1ccc(-c2ccc3[nH]ncc3c2CCO)nc1` [Compound 5-33, 5-[5-(1-Amino-1-methylethyl)pyridin-2-yl]-4-(2-hydroxyethyl)-1H-indazole trihydrochloride] the figure was 6.63.
The same measure, in the same setting: the same measure for `CC(C)(N)c1ccc(-c2ccc3[nH]ncc3c2OCCF)cc1` [Compound 5-56, 5-[4-(1-Amino-1-methylethyl)phenyl]-4-(2-fluoro-ethoxy)-1H-indazole dihydrochloride]: 7.59.
The same measure, in the same setting: the same measure for `CC(C)(N)c1ccc(-c2ccc3[nH]ncc3c2C#N)cc1` [Compound 5-36, 5-[4-(1-Amino-1-methylethyl)phenyl]-4-cyano-1H-indazole monohydrochloride]: 7.46; for `CC(C)(N)c1ccc(-c2ccc3[nH]ncc3c2-c2cc[nH]n2)cc1` [Compound 5-67, 5-[4-(1-Amino-1-methylethyl)phenyl]-4-(pyrazol-3-yl)-1H-indazole trihydrochloride]: 7.96.
In turn, `CCC(N)(CC)c1ccc(-c2ccc3[nH]ncc3c2OC2CC2)nc1` [Compound 5-71, 5-[5-(1-Amino-1-ethylpropyl)pyridin-2-yl]-4-cyclo-propyloxy-1H-indazole trihydrochloride] gave a pKi of 7.47.
The same measure, in the same setting: the same measure for `COc1c(-c2ccc(C(C)(C)N)cn2)ccc2[nH]ncc12` [Compound 5-45, 5-[5-(1-Amino-1-methylethyl)pyridin-2-yl]-4-methoxy-1H-indazole trihydrochloride]: 7.57; for `COc1c(-c2ccc(C3(N)CCCC3)cn2)ccc2[nH]ncc12` [Compound 5-46, 5-[5-(1-Aminocyclopentyl)pyridin-2-yl]-4-methoxy-1H-indazole trihydrochloride]: 7.57.
The same measure, in the same setting: the same measure for `CC(C)(N)c1ccc(-c2ccc3[nH]nc(N)c3c2)cc1` [Compound 5-11, 3-Amino-5-[4-(1-amino-1-methylethyl)phenyl]-1H-indazole trihydrochloride]: 6.84.
On the same count and under the same terms, with `CC(C)(N)c1cnc(-c2ccc3[nH]ncc3c2)c(Cl)c1` [Compound 5-27, 5-[5-(1-Amino-1-methylethyl)-3-chloropyridin-2-yl]-1H-indazole trihydrochloride] the figure was 7.07.
Molecule `CC(N)c1ccc(-c2ccc3[nH]ncc3c2N(C)C)cc1` (stereo not shown) [Compound 5-26, 5-[4-(1-Aminoethyl)phenyl]-4-dimethylamino-1H-indazole trihydrochloride] gave a pKi of 7.57.
The same measure, in the same setting: the same measure for `CC(C)(N)c1ccc(-c2ccc3[nH]ncc3c2OC(F)F)nc1` [Compound 5-59, 5-[5-(1-Amino-1-methylethyl)pyridin-2-yl]-4-difluoromethoxy-1H-indazole trihydrochloride]: 8.16.
In turn, `CC(C)(N)c1ccc(-c2ccc3[nH]nc(C=NO)c3c2)cc1` [Compound 5-12, 5-[4-(1-Amino-1-methylethyl)phenyl]-3-hydroxyimino-methyl-1H-indazole monohydrochloride] gave a pKi of 8.12.
On the same count and under the same terms, with `CCC(N)(CC)c1ccc(-c2ccc3[nH]ncc3c2N(C)C)cc1` [Compound 5-25, 5-[4-(1-Amino-1-ethylpropyl)phenyl]-4-dimethylamino-1H-indazole trihydrochloride] the figure was 7.64; with `NCc1ccc(-c2ccc3[nH]ncc3c2[N+](=O)[O-])cc1` [Compound 5-19, 5-[4-(Aminomethyl)phenyl]-4-nitro-1H-indazole dihydrochloride], 7.26; with `CC(O)c1c(-c2ccc(C(C)(C)N)cc2)ccc2[nH]ncc12` (stereo not shown) [Compound 5-34, 5-[4-(1-Amino-1-methylethyl)phenyl]-4-(1-hydroxy-ethyl)-1H-indazole dihydrochloride], 6.53.
Same read-out and setting: the same measure for `CC(C)(N)c1ccc(-c2ccc3[nH]ncc3c2OC2CC2)nc1` [Compound 5-70, 5-[5-(1-Amino-1-methylethyl)pyridin-2-yl]-4-cyclo-propyloxy-1H-indazole trihydrochloride]: 7.55; for `CCC(N)(CC)c1ccc(-c2ccc3[nH]ncc3c2OC(F)F)cc1` [Compound 5-72, 5-[4-(1-Amino-1-ethylpropyl)phenyl]-4-difluoro-methoxy-1H-indazole dihydrochloride]: 7.89.

System in another series: not given
Assay: not given
Conditions: not given
By melting point is commonly meant the temperature, or range, at which the solid turns liquid. Regarding `CC(C)(N)c1ccc(-c2ccc3[nH]ncc3c2-c2cnco2)cc1` (as salt: hydrochloride) [Compound 5-66, 5-[4-(1-Amino-1-methylethyl)phenyl]-4-(oxazol-5-yl)-1H-indazole dihydrochloride], the melting point is 212 to 214 °C (dec.).
`CC(=O)Nc1c(-c2ccc(C(C)(C)N)cc2)ccc2[nH]ncc12` (as salt: hydrochloride) [Compound 5-18, 4-(N-Acetylamino)-5-[4-(1-amino-1-methylethyl)-phenyl]-1H-indazole dihydrochloride]: the melting point lay in the range of 218 to 221 °C.
For the molecule `CCC(N)(CC)c1ccc(-c2ccc3[nH]ncc3c2N)cc1` (as salt: hydrochloride) [Compound 5-22, 4-Araino-5-[4-(1-amino-1-ethylpropyl)phenyl]-1H-indazole trihydrochloride], the melting point was 197 to 199 °C (dec.).
As to `CCC(N)(CC)c1ccc(-c2ccc3[nH]ncc3c2OC2CC2)nc1` (as salt: hydrochloride) [Compound 5-71, 5-[5-(1-Amino-1-ethylpropyl)pyridin-2-yl]-4-cyclo-propyloxy-1H-indazole trihydrochloride], the melting point is 207 to 209 °C (dec.).
Same read-out and setting: with `CC(C)(N)c1ccc(-c2ccc3[nH]nc(C(N)=O)c3c2)cc1` (as salt: hydrochloride) [Compound 5-10, 3-Aminocarbonyl-5-[4-(1-amino-1-methylethyl)phenyl]-1H-indazole monohydrochloride] the figure was 258 to 261 °C (dec.); with `C=C(C)c1n[nH]c2ccc(-c3ccc(C(C)(C)N)cc3)cc12` (as salt: trifluoroacetate) [Compound 5-15, 5-[4-(1-Amino-1-methylethyl)phenyl]-3-(1-methyl-vinyl)-1H-indazole monotrifluoroacetate], 221 to 225 °C (dec.); with `COc1c(-c2ccc(C(C)(C)N)cc2)ccc2[nH]ncc12` (as salt: hydrochloride) [Compound 5-44, 5-[4-(1-Amino-1-methylethyl)phenyl]-4-methoxy-1H-indazole dihydrochloride], 258 to 261 °C (dec.).
Still for that read-out and setting: the same measure for `CC(C)(N)c1ccc(-c2ccc3[nH]ncc3c2N)cc1` (as salt: hydrochloride) [Compound 5-5, 4-Amino-5-[4-(1-amino-1-methylethyl)phenyl]-1H-indazole trihydrochloride]: 228 to 235 °C (dec.).
